# Assays:
# [1] = system: PC3-PIP (PSMA positive) and PC-3 tumors (PSMA negative); experiment: Biodistribution of 177Lu labeled compounds 4 and 7 in tumor bearing nude mice; format: in vivo, CD-1 male nude mice
# Description: (§1) ^177Lu labeling: To 10 μg ligand (1 mg/mL DMSO) were added 15 μL of 2.0 N NaOAc, 400 μL 0.05 N HCl, and 20 μL ^177Lu-solution (780 μCi (Capintec setting 450 (reading×10)). The reaction was heated with a heating block at 95° C. for 1 hour in a 3 mL closed vial. After cooling, the sample was analyzed by HPLC (HPLC: Eclipse XDB-C18 150×4.6 mm, gradient, 1 mL/min; A: 0.1% TFA in water; B: 0.1% TFA in ACN: 0-4 min A/B 85/15%; 4-11 min: from 85/15 to 30/70%; 11-14 min: from 30/70% to 85/15%). Radiochemical purity of [^177Lu]4 (FIG. 2) and [^177Lu]7 was >98% and injected doses were stable at 48 hr after formulation.
# (§2) For iv injection 150 μL of labeled solution was diluted with saline to 3.75mL. Mice were injected with 150 μL of formulated dose. Injected radioactivity was 100 μCi and PSMA ligand amount was constant at 0.72 nmole/mouse.
# Biodistribution of [^68Ga]4, [^177Lu]4 and [^177Lu]7 was determined in nude mice bearing PIP PC3 (PSMA positive) and PC3 (PSMA negative) tumors on the left and right shoulder, respectively, over a period of 192 h (Table 3a, 3b and 3c). […] The uptake in PC3 tumors (PSMA negative) of both ligands, [^177Lu]4 and [^177Lu]7, was clearly much lower than those of PC-3 PIP tumors (PSMA positive).
# [2] = system: PSMA-positive cell line, PIP PC3; experiment: In vitro cell uptake, PIP PC3 cells; format: cell-based
# Description: To determine the cell uptakes of the [^177Lu] labelled ligands, 5×10^5 cells/well were grown in 12-well plates in 1 mL of medium for 48 h. The cells were washed twice with PBS, and 900 μL fresh media were added. […] All samples were prepared in triplicate. Following the incubation at 37° C., cells were washed twice to remove unbound activity and afterwards lysed in 1 mL of 0.5 M NaOH. Activity was measured in a gamma counter. Aliquots of the solution added to the cells were also measured for the calculation of the cellular uptake as % ID.
# [3] = system: PSMA-negative cell line, PC3; experiment: In vitro cell uptake, PC3 cells; format: cell-based; details: PC3 (do not express PSMA), 60 min
# Description: To determine the cell uptakes of the [^177Lu] labelled ligands, 5×10^5 cells/well were grown in 12-well plates in 1 mL of medium for 48 h. The cells were washed twice with PBS, and 900 μL fresh media were added. Radiolabelled ligand was added and the PSMA-inhibitor (2-PMPA) was applied in a final concentration of 10 μM to determine unspecific binding. All samples were prepared in triplicate. Following the incubation at 37° C., cells were washed twice to remove unbound activity and afterwards lysed in 1 mL of 0.5 M NaOH. Activity was measured in a gamma counter. Aliquots of the solution added to the cells were also measured for the calculation of the cellular uptake as % ID.
# [4] = Stability of injected doses after formulation; format: physicochemical; details: at 48 hr after formulation
# Description: ^68Ga labeling: To 15 nmole ligand 4 (1 mg/mL DMSO) were added 20 μL of 2.0 N NaOAc, 500 μL ^68Ga-solution (2.25 mCi). The reaction was heated in a heating block at 90° C. for 10 minutes in a 3 mL closed vial. After cooling, the sample was analyzed by HPLC (HPLC: Eclise XDB C18 150×4.6 mm, gradient, 2 mL/min; A: 0.1% TFA in water; B: 0.1% TFA in ACN: 0-2 min 100% A; 2-4 min: from 0% to 100% B; 4-9 min: 100% B; 9-10 min: from 100% to 0% B). Radiochemical purity of [^68Ga]4 was >99% RCP (FIG. 1) and injected doses were stable at 2 hr after formulation.
# as §1, §2
smiles,measurement,setting,value
O=C(O)CCC(C(=O)O)N1CCN(CC(=O)O)CCN(C(CCC(=O)NCC(=O)N[C@@H](Cc2ccc(OCC(=O)N[C@@H](Cc3ccccc3)C(=O)NCCCC[C@H](NC(=O)N[C@@H](CCC(=O)O)C(=O)O)C(=O)O)cc2)C(=O)O)C(=O)O)CCN(CC(=O)O)CC1.[177Lu] (some centres unmarked) [[^177Lu]4],Biodistribution: Kidney,[1]; 48 hrs (2 days),2.359 ± 1.504 % dose/g
same,Biodistribution: Liver,[1]; 48 hrs (2 days),0.069 ± 0.067 % dose/g
same,Biodistribution: Lung,[1]; 48 hrs (2 days),0.032 ± 0.028 % dose/g
same,Biodistribution: Muscle,[1]; 48 hrs (2 days),0.006 ± 0.003 % dose/g
same,Biodistribution: PC3 tumor,[1]; 48 hrs (2 days),0.080 ± 0.034 % dose/g
same,Biodistribution: PIP PC3 tumor,[1]; 48 hrs (2 days),13.98 ± 6.41 % dose/g
same,Biodistribution: Pancreas,[1]; 48 hrs (2 days),0.011 ± 0.001 % dose/g
same,Biodistribution: Skin,[1]; 48 hrs (2 days),0.034 ± 0.015 % dose/g
same,Biodistribution: Spleen,[1]; 48 hrs (2 days),0.133 ± 0.173 % dose/g
same,Biodistribution: Stomach,[1]; 48 hrs (2 days),0.032 ± 0.014 % dose/g
same,Biodistribution: Blood,[1]; 96 hrs (4 days),0.001 ± 0.000 % dose/g
same,Biodistribution: Bone,[1]; 96 hrs (4 days),0.043 ± 0.038 % dose/g
same,Biodistribution: Brain,[1]; 96 hrs (4 days),0.006 ± 0.001 % dose/g
same,Biodistribution: Heart,[1]; 96 hrs (4 days),0.011 ± 0.006 % dose/g
same,Biodistribution: Intestine,[1]; 96 hrs (4 days),0.040 ± 0.028 % dose/g
same,Biodistribution: Kidney,[1]; 96 hrs (4 days),0.623 ± 0.072 % dose/g
same,Biodistribution: Liver,[1]; 96 hrs (4 days),0.031 ± 0.003 % dose/g
same,Biodistribution: Lung,[1]; 96 hrs (4 days),0.020 ± 0.009 % dose/g
same,Biodistribution: Muscle,[1]; 96 hrs (4 days),0.006 ± 0.002 % dose/g
same,Biodistribution: PC3 tumor,[1]; 96 hrs (4 days),0.047 ± 0.012 % dose/g
same,Biodistribution: PIP PC3 tumor,[1]; 96 hrs (4 days),6.90 ± 1.87 % dose/g
same,Biodistribution: Pancreas,[1]; 96 hrs (4 days),0.022 ± 0.011 % dose/g
same,Biodistribution: Skin,[1]; 96 hrs (4 days),0.032 ± 0.019 % dose/g
same,Biodistribution: Spleen,[1]; 96 hrs (4 days),0.033 ± 0.015 % dose/g
same,Biodistribution: Stomach,[1]; 96 hrs (4 days),0.030 ± 0.002 % dose/g
same,Biodistribution: Blood,[1]; 192 hrs (8 days),0.001 ± 0.000 % dose/g
same,Biodistribution: Bone,[1]; 192 hrs (8 days),0.042 ± 0.035 % dose/g
same,Biodistribution: Brain,[1]; 192 hrs (8 days),0.003 ± 0.001 % dose/g
same,Biodistribution: Heart,[1]; 192 hrs (8 days),0.005 ± 0.000 % dose/g
same,Biodistribution: Intestine,[1]; 192 hrs (8 days),0.162 ± 0.087 % dose/g
same,Biodistribution: Kidney,[1]; 192 hrs (8 days),0.177 ± 0.009 % dose/g
same,Biodistribution: Liver,[1]; 192 hrs (8 days),0.021 ± 0.005 % dose/g
same,Biodistribution: Lung,[1]; 192 hrs (8 days),0.006 ± 0.003 % dose/g
same,Biodistribution: Muscle,[1]; 192 hrs (8 days),0.003 ± 0.003 % dose/g
same,Biodistribution: PC3 tumor,[1]; 192 hrs (8 days),0.022 ± 0.002 % dose/g
same,Biodistribution: PIP PC3 tumor,[1]; 192 hrs (8 days),4.21 ± 1.03 % dose/g
same,Biodistribution: Pancreas,[1]; 192 hrs (8 days),0.003 ± 0.001 % dose/g
same,Biodistribution: Skin,[1]; 192 hrs (8 days),0.011 ± 0.003 % dose/g
same,Biodistribution: Spleen,[1]; 192 hrs (8 days),0.032 ± 0.010 % dose/g
same,Biodistribution: Stomach,[1]; 192 hrs (8 days),0.209 ± 0.131 % dose/g
same,Uptake in PC3 tumors (PSMA negative) versus PC-3 PIP tumors (PSMA positive),"[1]; mouse, in vivo",much lower
same,Uptakes compared with reference ligand [177Lu]PSMA-617,[2]; PIP PC3,much higher uptakes
same,In vitro cell uptake,"[2]; PIP PC3, 5 min",4.0 % ID per 5 × 10^5 cells
same,In vitro cell uptake,"[2]; PIP PC3, 15 min",7.5 % ID per 5 × 10^5 cells
same,In vitro cell uptake,"[2]; PIP PC3, 30 min",11.2 % ID per 5 × 10^5 cells
same,In vitro cell uptake,"[2]; PIP PC3, 60 min",13.4 % ID per 5 × 10^5 cells
same,In vitro cell uptake,"[2]; PIP PC3, 60 min, with PSMA inhibitor (2-PMPA, 2 uM)",0.9 % ID per 5 × 10^5 cells
same,In vitro cell uptake,"[2]; PIP PC3, 120 min",14.9 % ID per 5 × 10^5 cells
same,In vitro cell uptake,[3],0.4 % ID per 5 × 10^5 cells
same,Stability of injected doses,[4],stable
